The values below come from patent US8993552B2, “Compositions and methods for treatment of leukemia” (The Regents of The University of Michigan, priority 2009, dated 2015).

Data set [1] addresses T1, menin-MLL interaction (Homo sapiens (Human), UniProt O00255). Kind of data set: Fluorescence polarization (FP) competition assay with fluorescein-labeled MLL peptide.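 Note: Read-out is fluorescence anisotropy of fluorescein-labeled MLL peptide bound to menin, inhibitors displace the peptide and lower anisotropy.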 In kind it is binding. Background: Fluorescence polarisation rises when a labelled molecule tumbles more slowly, as on binding a larger partner.
Data set [2] has as its target T1, menin-MLL interaction. Description: HTRF (TR-FRET) assay, His-tagged menin and biotinylated MLL peptide. In kind it is binding. (In TR-FRET formats the signal depends on donor and acceptor labels being close together.)
In another data set the target is menin (Homo sapiens (Human), UniProt O00255). Description: NMR STD / competition STD binding experiments. The settings on record: 2.5 μM menin.
menin, sequence (O00255 whole entry): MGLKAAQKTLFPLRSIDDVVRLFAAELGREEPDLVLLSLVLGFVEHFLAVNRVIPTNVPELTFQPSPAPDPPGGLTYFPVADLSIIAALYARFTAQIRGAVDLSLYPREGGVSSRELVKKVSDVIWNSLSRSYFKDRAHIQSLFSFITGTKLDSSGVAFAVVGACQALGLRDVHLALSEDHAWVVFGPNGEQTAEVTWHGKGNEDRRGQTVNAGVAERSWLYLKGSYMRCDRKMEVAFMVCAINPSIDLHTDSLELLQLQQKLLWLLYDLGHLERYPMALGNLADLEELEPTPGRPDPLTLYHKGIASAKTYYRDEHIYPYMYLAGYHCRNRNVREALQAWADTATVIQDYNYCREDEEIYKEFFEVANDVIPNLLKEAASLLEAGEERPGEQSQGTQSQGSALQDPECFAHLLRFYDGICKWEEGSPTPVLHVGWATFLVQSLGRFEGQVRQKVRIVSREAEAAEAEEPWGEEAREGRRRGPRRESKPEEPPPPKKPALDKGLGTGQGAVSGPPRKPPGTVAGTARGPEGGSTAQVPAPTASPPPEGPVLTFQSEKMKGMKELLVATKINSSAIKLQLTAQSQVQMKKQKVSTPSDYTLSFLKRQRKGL
The subject of data set [3] is Hoxa9 and Meis1 expression. Description: qRT-PCR of MLL downstream targets in THP-1 cells. On the technique in general: In qPCR the cycle at which signal appears reflects the starting amount.
The test system of data set [4] is non-MLL leukemia cell lines (Kasumi-1, ME-1). Description: MTT viability assay in non-MLL leukemia cell lines. The format is cell-based, human. Particulars: Kasumi-1 (AML1-ETO), ME-1 (CBFβ-SMMHC).
The subject of another data set is Hep-G2 (liver) cell line. Kind of data set: MTT viability assay, liver cell line.
The subject of a further data set is HK-2 (kidney) cell line. Description: MTT viability assay, kidney cell line.
Where [5] appears, read: Table 1, NA = no activity, NS = no saturation on titration curve, read-out: IC50 in FP assay with FLSN-MLL.
Setting [6] is: Table 4, NA = no activity, NS not defined in this table, read-out: IC50 in FP assay with FLSN-MLL.
[7] abbreviates: Table 2, FP assay, read-out: IC50.
Where [8] appears, read: Table 3, NA = no activity, read-out: IC50 in FP assay with FLSN-MLL.

T1 sequence (O00255 whole entry): as above

As for `CCc1cc2c(N3CCN(Cc4ccccc4)CC3)ncnc2s1` [Compound 2], the IC50 (usually the midpoint of a concentration-inhibition curve) on menin-MLL interaction [1] (setting [5]) amounted to 42 µM; against menin-MLL interaction [2] (Table 1) it was 85 µM.
Regarding `COc1ccc(-c2csc(CC(N)=O)n2)cc1` [Compound 47], the IC50 is 67 µM on menin-MLL interaction [1] (setting [6]) and 33 µM at menin-MLL interaction [2] (Table 4). For the same molecule, at menin-MLL interaction [1] (inhibition of the menin-MLL interaction), the “potency relative to the original hit (6G10)” value was “about 4 fold”.
Turning to `CCc1cc2c(N3CCN(c4nnc(C(F)(F)F)s4)CC3)ncnc2s1.Cl` [Compound 66], the IC50 on menin-MLL interaction [1] (setting [7]) stood at 1.1 µM. Besides, the “in vitro activity in FP assay relative to parent Compound 1” value at menin-MLL interaction [1] (in words) is reported as “more potent activity”.
Turning to `CCc1cc2c(N3CCCN(CC(=O)N4CCCC4)CC3)ncnc2s1` [Compound 74], on menin-MLL interaction [1] (setting [7]), the IC50 amounted to 7 µM.
With `OCc1ccc(-c2ccncc2)cc1` [Compound 45], the IC50 at menin-MLL interaction [1] (setting [6]) is 510 µM. At menin, the “binding to menin by NMR (STD, competition STD with MLL peptide)” value (from here on “binding to menin by NMR”) is on record as “Binding to menin was confirmed”.
Consider `CCc1cc2c(NCC3CCN(Cc4ccc(F)cc4)CC3)ncnc2s1` [Compound 82], for which the IC50 at menin-MLL interaction [1] (setting [7]) stood at 4.4 µM.
Still for that read-out and setting: as for `CCc1cc2c(N3CCN(C(=O)c4ccccc4)CC3)ncnc2s1` [Compound 62], the figure is 10 µM.
Consider `Cc1csc(N2CCN(c3nc(C)nc4sc5c(c34)CCCC5)CC2)n1` [Compound 15], for which the IC50 on menin-MLL interaction [1] (setting [5]) came to 49 µM.
As to `Cc1nn(-c2ccccc2)nc1C(N)=O` [Compound 44], at menin-MLL interaction [1] (setting [6]), the IC50 was determined as 380 µM. Besides, the “binding to menin by NMR” value on menin is “Binding to menin was confirmed”.
Consider `Cc1c(-c2ccccc2)sc2ncnc(N3CCN(c4nccs4)CC3)c12` [Compound 16], for which the IC50 on menin-MLL interaction [1] (setting [5]) was 71 µM.
As for `Fc1ccc(-c2csc3ncnc(N4CCN(c5nccs5)CC4)c23)cc1` [Compound 20], the IC50 at menin-MLL interaction [1] (setting [5]) was 125 µM.
With `CCc1cc2c(NCC3CCN(Cc4cccc(C)c4)CC3)ncnc2s1` [Compound 81], the IC50 on menin-MLL interaction [1] (setting [7]) is 40 µM.
As to `CCc1cc2c(N3CCN(CC(=O)N4CCN(C)CC4)CC3)ncnc2s1` [Compound 69], the IC50 at menin-MLL interaction [1] (setting [7]) is 16 µM.
Take `CC1(C)CC(=O)C2=C(C1)Nc1ccccc1NC2c1ccc2c(c1)OCO2` (stereo not drawn) [Compound 34]: the IC50 on menin-MLL interaction [1] (setting [8]) is 12 µM.
In the case of `CCc1cc2c(NC3CCN(Cc4ccccc4)CC3)ncnc2s1` [Compound 80], the IC50 on menin-MLL interaction [1] (setting [7]) worked out at 1.3 µM.
Regarding `Cc1csc(N2CCN(c3nc(CN4CCOCC4)nc4sc5c(c34)CCC(C)C5)CC2)n1` (stereo not drawn) [Compound 14], the IC50 on menin-MLL interaction [1] (setting [5]) was 250 µM.
Consider `CCCC(=O)Nc1ccc(-c2nc(CC(N)=O)sc2C)cc1` [Compound 59], for which the IC50 on menin-MLL interaction [1] (setting [6]) came out at 830 µM.
Consider `COc1ccc(-c2csc(CC(N)=O)n2)cc1Br` [Compound 58], for which the IC50 on menin-MLL interaction [1] (setting [6]) stood at 80 µM.
As for `c1cn(CCCNc2ncnc3sc4c(c23)CCCCC4)cn1` [Compound 3], the IC50 on menin-MLL interaction [1] (setting [5]) was determined as 83 µM; on menin-MLL interaction [2] (Table 1) it was 35 µM.
Regarding `NC(=O)Cc1nc(-c2ccc(F)cc2)cs1` [Compound 43], the results for the IC50 on menin-MLL interaction [1] (setting [6]) and against menin-MLL interaction [2] (Table 4) were 230 µM and 200 µM, respectively. The “binding to menin by NMR” value on menin is given as “Binding to menin was confirmed”.
`CCc1cc2c(N3CCN(C(=O)c4ccco4)CC3)ncnc2s1` [Compound 63]: the IC50 on menin-MLL interaction [1] (setting [7]) was found to be 12 µM. For the same molecule, the “expression level of Hoxa9 and Meis1” value in data set [3] is recorded as “Downregulation”. Also, the “effect on growth of non-MLL leukemia cell lines” value in data set [4] was “No or very limited effect”.
Consider `CC(=O)N1c2ccccc2NC2=C(C(=O)CC(c3ccc(C(C)(C)C)cc3)C2)C1c1ccncc1` (stereo not drawn) [Compound 33], for which the “toxicity in viability assay” value in the data set with Hep-G2 (liver) cell line and in the data set on HK-2 (kidney) cell line was “no substantial signs of toxicity” each time. Besides, the IC50 on menin-MLL interaction [1] (setting [8]) stood at 29 µM; at menin-MLL interaction [2] (Table 3) it was 28 µM. Further, the “binding to menin by NMR” value at menin was “specific binding”.
On to `COc1cc(C2Nc3ccccc3NC3=C2C(=O)CC(C)(C)C3)cc(OC)c1OC` (stereo not drawn) [Compound 35], for which the IC50 at menin-MLL interaction [1] (setting [8]) was 35 µM.
Take `CC1(C)CN=C(N2CCN(c3ncnc4sc(Cc5ccccc5)cc34)CC2)S1` [Compound 71]: at menin-MLL interaction [1] (setting [7]), the IC50 worked out at 4.6 µM.
On the same count and under the same terms, then `CC(C)c1cc2c(N3CCN(c4nnc(C(F)(F)F)s4)CC3)ncnc2s1` [Compound 68], with 2.4 µM; and `CC(C)c1cc2c(N3CCCN(C4=NCC(C)(C)S4)CC3)ncnc2s1` [Compound 75], with 32 µM.
On the same count and under the same terms, as for `CCc1cc2c(N3CCN(CC(=O)N4CCOCC4)CC3)ncnc2s1` [Compound 61], the figure is 20 µM.
As for `Cc1ccccc1NC(=O)Cc1nc(-c2ccc(F)cc2)cs1` [Compound 50], the IC50 at menin-MLL interaction [1] (setting [6]) stood at 122 µM.
Still for that read-out and setting: as for `O=C(Cc1nc(-c2ccc(Cl)cc2)cs1)NCc1ccccc1` [Compound 53], the figure is 1060 µM.
As to `NC(=O)Cc1nc(-c2ccccc2)cs1` [Compound 46], the IC50 at menin-MLL interaction [1] (setting [6]) came to 2000 µM.
In the case of `Nc1cccc(-c2cccnc2)c1` [Compound 42], the IC50 at menin-MLL interaction [1] (FP competition, read-out: IC50 for inhibition of the menin-MLL interaction) amounted to 50 µM; on menin-MLL interaction [1] (setting [6]), 50 µM. Besides, the “binding to menin by NMR” value at menin is “Binding to menin was confirmed”.
